# Measurements from ChEMBL document CHEMBL2331395, “Natural product coumarins that inhibit human carbonic anhydrases” (Bioorg Med Chem, 2013).
# Columns and labels:
# [1] = biological target: Carbonic anhydrase 9 (Homo sapiens, UniProt Q16790); assay: Inhibition of human carbonic anhydrase 9 preincubated for 6 hrs by CO2 hydration stopped-flow assay
# [2] = biological target: Carbonic anhydrase 2 (Homo sapiens, UniProt P00918); assay: Inhibition of human carbonic anhydrase 2 preincubated for 6 hrs by CO2 hydration stopped-flow assay
# [3] = biological target: Carbonic anhydrase 13 (Homo sapiens, UniProt Q8N1Q1); assay: Inhibition of human carbonic anhydrase 13 preincubated for 6 hrs by CO2 hydration stopped-flow assay
# [4] = biological target: Carbonic anhydrase 7 (Homo sapiens, UniProt P43166); assay: Inhibition of human carbonic anhydrase 7 preincubated for 6 hrs by CO2 hydration stopped-flow assay
# [5] = biological target: Carbonic anhydrase 12 (Homo sapiens, UniProt O43570); assay: Inhibition of human carbonic anhydrase 12 preincubated for 6 hrs by CO2 hydration stopped-flow assay
# [6] = biological target: Carbonic anhydrase 1 (Homo sapiens, UniProt P00915); assay: Inhibition of human carbonic anhydrase 1 preincubated for 6 hrs by CO2 hydration stopped-flow assay
# Sequence of Carbonic anhydrase 1 (P00915 whole entry): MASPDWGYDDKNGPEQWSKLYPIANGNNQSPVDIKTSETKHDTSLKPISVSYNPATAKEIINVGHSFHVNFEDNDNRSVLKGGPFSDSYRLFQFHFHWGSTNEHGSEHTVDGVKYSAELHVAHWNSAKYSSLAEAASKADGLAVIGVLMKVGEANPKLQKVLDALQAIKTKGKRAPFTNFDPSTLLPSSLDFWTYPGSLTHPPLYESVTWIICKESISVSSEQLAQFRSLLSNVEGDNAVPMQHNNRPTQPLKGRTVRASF
# Sequence of Carbonic anhydrase 12 (O43570 whole entry): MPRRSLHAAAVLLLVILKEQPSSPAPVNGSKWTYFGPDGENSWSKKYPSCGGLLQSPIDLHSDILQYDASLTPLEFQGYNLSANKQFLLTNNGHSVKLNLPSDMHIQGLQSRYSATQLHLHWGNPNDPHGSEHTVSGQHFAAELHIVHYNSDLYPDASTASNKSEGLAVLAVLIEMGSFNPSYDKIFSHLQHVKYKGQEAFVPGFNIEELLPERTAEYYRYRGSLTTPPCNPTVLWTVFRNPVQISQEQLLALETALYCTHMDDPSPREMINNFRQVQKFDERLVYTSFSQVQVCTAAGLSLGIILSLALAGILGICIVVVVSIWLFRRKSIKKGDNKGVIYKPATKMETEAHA
# Sequence of Carbonic anhydrase 7 (P43166 whole entry): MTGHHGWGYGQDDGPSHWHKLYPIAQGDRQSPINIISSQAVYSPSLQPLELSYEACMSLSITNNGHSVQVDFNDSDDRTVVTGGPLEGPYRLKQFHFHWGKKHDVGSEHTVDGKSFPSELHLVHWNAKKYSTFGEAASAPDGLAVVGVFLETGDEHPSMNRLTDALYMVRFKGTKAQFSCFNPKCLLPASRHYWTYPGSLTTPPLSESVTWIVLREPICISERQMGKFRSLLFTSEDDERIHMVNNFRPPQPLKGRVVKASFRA
# Sequence of Carbonic anhydrase 13 (Q8N1Q1 whole entry): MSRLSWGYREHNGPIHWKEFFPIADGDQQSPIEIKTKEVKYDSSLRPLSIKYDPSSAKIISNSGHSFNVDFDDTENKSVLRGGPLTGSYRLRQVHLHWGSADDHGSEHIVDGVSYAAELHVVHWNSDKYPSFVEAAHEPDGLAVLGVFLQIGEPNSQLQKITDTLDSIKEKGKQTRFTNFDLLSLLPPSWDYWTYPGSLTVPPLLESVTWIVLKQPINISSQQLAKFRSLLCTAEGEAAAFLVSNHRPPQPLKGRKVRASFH
Ki [1] [µM],Ki [2] [µM],Ki [3] [µM],Ki [4] [µM],Ki [5] [µM],Ki [6] [µM],Structure (SMILES)
0.85,> 100,,,,,COc1cc2ccc(=O)oc2c(O)c1OC
17.4,> 100,,,,,COc1cc2c(=O)oc3c(OC)c(OC)cc4c(=O)oc(c1O)c2c34
3.22,> 100,,,,,COc1ccc(-c2c3n(c4c(=O)oc5cc(O)c(OC)cc5c24)CCc2c-3cc(OC)c(OC)c2O)cc1O
6.33,> 100,,,,,COc1cc(-c2c3c4cc(OC)c(O)cc4oc(=O)c3n3ccc4c(OC)c(OC)c(OC)cc4c23)ccc1O
3.27,> 100,,,,,COc1ccc(-c2c3n(c4c(=O)oc5cc(OC)c(O)cc5c24)CCc2cc(OS(=O)(=O)O)c(OC)cc2-3)cc1O
0.76,9.65,,,,,COc1cc(OC)c2ccc(=O)oc2c1OC
3.5,> 100,,,,,COc1cc2oc(=O)ccc2c2c1C=CC(C)(C)O2 [ALLOXANTHOXYLETIN]
79.8,,4.24,8.79,8.15,68.2,O=c1oc2c(O)c(O)cc3c(=O)oc4c(O)c(O)cc1c4c23 [ELLAGIC ACID]
6.58,> 100,4.24,9.28,18.2,0.0097,COc1cc2ccc(=O)oc2c(OC)c1OC [FRAXIDIN METHYL ETHER]
7.37,> 100,5.27,23.8,4.14,14,COc1cc2oc(=O)ccc2cc1O [ISOSCOPOLETIN]
8.12,> 100,,,,,COc1ccc2ccc(=O)oc2c1C(C=O)=C(C)C [MURRALONGIN]
0.96,> 100,17.8,8.71,4.05,10.6,COc1cc2ccc(=O)oc2cc1O [SCOPOLETIN]
8.72,> 100,,,,,COc1cc2ccc(=O)oc2cc1O[C@@H]1O[C@H](CO)[C@@H](O)[C@H](O)[C@H]1O [SCOPOLIN]

# The remaining lines, values behind:
Structure (SMILES),Ki [1] [µM],Ki [2] [µM],Ki [3] [µM],Ki [4] [µM],Ki [5] [µM],Ki [6] [µM]
CC(CCOc1ccc2ccc(=O)oc2c1)C1=CC(=O)C(C)(C)O1 (centres undefined),0.89,63.4,,,,
C/C(=C\COc1ccc2ccc(=O)oc2c1)CCC(=O)C(C)(C)O,4.03,> 100,,,,
COc1c(O)ccc2ccc(=O)oc12,0.85,> 100,,,,
C=C(C)/C=C/c1c(OC)c2c(c3ccc(=O)oc13)OC(C)(C)C=C2,0.62,> 100,,,,
COc1c2c(c(OC)c3oc(=O)ccc13)OC(C)(C)C=C2,0.86,49.3,> 100,,,
C=C(C)C(COC(=O)c1cccnc1)c1c(OC)ccc2ccc(=O)oc12 (centres undefined),0.67,> 100,,> 100,,
C/C(=C\Cc1cc2ccc(=O)oc2cc1O)CO,9.75,78.9,,,,
CCCc1cc(=O)oc2c3c(c4c(c12)OC(C)(C)C=C4)O[C@H](C)[C@@H](C)[C@H]3O [(+)-CALANOLIDE B],,50.7,21,8.87,0.81,9.31
COc1c2c(c3ccc(=O)oc3c1/C=C/C(C)(C)O)OC(C)(C)C=C2 [AVICENNOL],0.78,> 100,29.3,8.98,0.77,8.46
O=c1ccc2ccccc2o1 [COUMARIN],,,> 1000,> 1000,,
COc1cc2ccc(=O)oc2c(O[C@@H]2O[C@H](CO)[C@@H](O)[C@H](O)[C@H]2O)c1O [FRAXINE],0.37,> 100,9.8,3.87,7.45,5.04
C/C(=C\COc1ccc2ccc(=O)oc2c1)C1=CC(=O)C(C)(C)O1 [GEIPARVARIN],0.6,> 100,9.62,7.82,0.83,9.75
COc1c2c(cc3oc(=O)ccc13)OC(C)(C)C=C2 [XANTHOXYLETIN],0.74,> 100,3.15,6.27,0.96,7.71
CC1(C)C=Cc2cc3ccc(=O)oc3cc2O1 [XANTHYLETIN],7.51,> 100,8.36,9.18,25.7,21.5
